# Tests used:
# ectopic E-MSCs [1] = assay: Endothelial differentiation (CD31) of ectopic E-MSCs in co-culture with HUVECs; type: cell-based, human; settings: for endothelial differentiation (CD31 expression) of E-MSCs: 1 μM, 24 h treatment, 48 h co-culture with HUVECs
# Method: FIG. 5: Quinagolide effect on EMSCs endothelial differentiation. A. FACS gating-strategy for the analysis of CD31^+ EMSCs after direct 48 h co-culture with HUVECs. EMSCs are gated as GFP negative population, and CD31 expression is evaluated on the described gated EMSCs after 48 h co-culture with HUVECs as percentage of CD31 APC positive events. B, C and D: Representative flow cytometry micrographs and quantification, expressed as percentage of variation respect to control co-culture, of the effect of 24 h treatment of EMSCs with 25 μM cabergoline, 1 μM sorafenib, 1 μM cabozantinib (B), 100 nM quinagolide (C) and the combination of 5 μM spiperone and 100 nM quinagolide (D) on EMSCs CD31 expression after 48 h of co-culture with HUVECs. Data are represented as mean±SD of at least three independent experiments, performed on different ectopic EMSC lines, and normalized to untreated co-culture. One-way ANova was performed: *=p<0.05 and ***=p<0.001 vs control.
# (BSA)-Phosphate Buffered Saline (PBS) (Sigma). For each staining, 100,000 cells were incubated for 20 minutes at 4° C. with FITC, APC or PE-conjugated antibodies against: CD29, CD44, CD73, CD90 (BD Bioscences, Franklin Lakes, NJ, USA); CD31, CD34, CD105, CD140b, CD146, TEK receptor tyrosine kinase (Tie2), Sushi domain-containing protein 2 (SUSD2) (Miltenyi Biotech, Bergisch Gladbach, Germany); CD45 (AbD Serotec, Raleigh, NC, USA), or epithelial cell adhesion molecule (EPCAM) (BioLegend, San Diego, CA, USA). Labelled cells were washed by centrifugation and final pellet was resuspended in 200 μl of 0.1% BSA-PBS before cytofluorimetric analysis. Isotype (Miltenyi Biotec) was used as negative control.
# Quinagolide powder (provided by Ferring Pharmaceuticals) was stored at 4° C. and resuspended in dimethylsulphoxide (DMSO) to a stock solution of 1 mM immediately before use. Spiperone powder (Sigma-Aldrich) was resuspended in water to a stock concentration of 1 mM and stored at −20° C. Cabergoline powder (Sigma-Aldrich) was dissolved in DMSO to a stock concentration of 25 mM and stored at −20° C. Sorafenib and cabozantinib (Sigma-Aldrich) were resuspended in DMSO to a final concentration of 10 mM and according to the manufacturer's instructions, and stored at −20° C. and −80° C., respectively. Quinagolide, spiperone and cabergoline were diluted 1:100 (final concentration 100 nM), 1:1000 (final concentration 5 μM) and 1:1000 (final concentration 25 μM) respectively. Quinagolide, cabergoline, sorafenib and cabozantinib and were administered for 24 hours during co-culture experiments, while spiperone was added to culture medium 1 h before quinagolide treatment. For invasion assays, E-MSCs were treated with spiperone 1 h before the cell detachment and quinagolide was added only when cells were plated on Matrigel. […]
# ectopic E-MSCs [2] = settings: 25 μM, previously described (Canosa et al., 2017), positive control; cited from earlier work
# ectopic E-MSCs [3] = assay: Matrigel transwell invasion assay, ectopic E-MSCs; type: cell-based, human; settings: 5 μM spiperone pre-treatment 1 h, then 100 nM quinagolide, ectopic EMSCs
# Method: FIG. 4: Quinagolide effect on EMSCs invasion. A and B: Representative micrographs (A) and quantification (B) of quinagolide effect (100 nM) on eutopic and ectopic (both ovarian and peritoneal) EMSCs invasion (original magnification: ×100). C: Concentration response effect of quinagolide treated ectopic EMSCs invasion. D and E: Quantification (D) and representative micrographs (E) (original magnification: ×100) of invasion assays performed on ectopic EMSCs (both ovarian and peritoneal), treated with 100 nM quinagolide (Q100 nM), 5 μM spiperone(S) or a combination of quinagolide and spiperone (S+Q100 nM). All invasion data are represented as mean±SD of at least three independent experiments, performed on different EMSC lines, and normalized to untreated cells (CTL). One-way ANova was performed: *=p<0.05 and **=p<0.001 vs CTL. Quinagolide powder (provided by Ferring Pharmaceuticals) was stored at 4° C. and resuspended in dimethylsulphoxide (DMSO) to a stock solution of 1 mM immediately before use. Spiperone powder (Sigma-Aldrich) was resuspended in water to a stock concentration of 1 mM and stored at −20° C. Cabergoline powder (Sigma-Aldrich) was dissolved in DMSO to a stock concentration of 25 mM and stored at −20° C. […] Quinagolide, cabergoline, sorafenib and cabozantinib and were administered for 24 hours during co-culture experiments, while spiperone was added to culture medium 1 h before quinagolide treatment. […] E-MSCs were seeded in triplicate in Matrigel-precoated (100 μg Matrigel/transwell) 8-um pore transwells at a concentration of 50,000 cells per well in 200 μl of RPMI 2% FCS with/without quinagolide at the indicated concentration. To test the D2 antagonist effect, E-MSCs were pre-treated with spiperone (5 μM) for 1 h at 37° C. before cell detachment. After 48 hours, invaded E-MSCs on the bottom side of the transwell were fixed with methanol and stained with crystal violet. At least five pictures per transwell were acquired (original magnification: 100×), and the percentage of transwell area covered by invaded EMSCs was quantitatively measured by ImageJ software.
smiles,measurement,setting,value
CNC(=O)c1cc(Oc2ccc(NC(=O)Nc3ccc(Cl)c(C(F)(F)F)c3)cc2)ccn1 [Sorafenib],endothelial differentiation (CD31 expression) of E-MSCs,ectopic E-MSCs [1],no effect
C=CCN1C[C@H](C(=O)N(CCCN(C)C)C(=O)NCC)C[C@@H]2c3cccc4[nH]cc(c34)C[C@H]21 [cabergoline],E-MSC's angiogenic potential,ectopic E-MSCs [2],decrease
COc1cc2nccc(Oc3ccc(NC(=O)C4(C(=O)Nc5ccc(F)cc5)CC4)cc3)c2cc1OC [cabozantinib],endothelial differentiation (CD31 expression) of E-MSCs,ectopic E-MSCs [1],no effect
O=C(CCCN1CCC2(CC1)C(=O)NCN2c1ccccc1)c1ccc(F)cc1 [spiperone],block of quinagolide effect on CD31 expressing E-MSCs,"ectopic E-MSCs [1]; 5 μM spiperone one hour before 100 nM quinagolide, co-culture",blocked
same,reversal of quinagolide anti-invasive effect,ectopic E-MSCs [3],completely reverted

# From US20240361338A1, “DIAGNOSIS AND TREATMENT OF ECTOPIC ENDOMETRIOSIS” (FERRING B.V., priority 2021, published 2024)
